This passage reports IC50 results from patent US20210355121A1, “FUSED TRICYCLIC KRAS INHIBITORS” (Incyte Corporation, priority 2020, published 2021).

Like-named read-outs stand apart in the source and are kept apart here.

The target of one test is KRAS G12C (Homo sapiens, UniProt P01116, G12C). As to the kind of experiment: KRAS G12C GDP-GTP exchange assay (bodipy-GDP for GppNHp, with SOS1). The test is classed as biochemical. To be noted: 2.5 nM bodipy-loaded KRAS G12C, 2 hours pre-incubation with inhibitor, 2 hours after GppNHp-SOS1; read-out: G12C_exchange (KRAS_G12C exchange assay IC50). How it is done: The inhibitor potency of the exemplified compounds was determined in a fluorescence based guanine nucleotide exchange assay, which measures the exchange of bodipy-GDP (fluorescently labeled GDP) for GppNHp (Non-hydrolyzable GTP analog) to generate the active state of KRAS in the presence of SOS1 (guanine nucleotide exchange factor). Inhibitors were serially diluted in DMSO and a volume of 0.1 μL was transferred to the wells of a black low volume 384-well plate. 5 μL/well volume of bodipy-loaded KRAS G12C diluted to 5 nM in assay buffer (25 mM Hepes pH 7.5, 50 mM NaCl, 10 mM MgCl2 and 0.01% Brij-35) was added to the plate and pre-incubated with inhibitor for 2 hours at ambient temperature. Appropriate controls (enzyme with no inhibitor or with a G12C inhibitor (AMG-510)) were included on the plate. The exchange was initiated by the addition of a 5 μL/well volume containing 1 mM GppNHp and 300 nM SOS1 in assay buffer. The 10 μL/well reaction concentration of the bodipy-loaded KRAS G12C, GppNHp, and SOS1 were 2.5 nM, 500 uM, and 150 nM, respectively. The reaction plates were incubated at ambient temperature for 2 hours, a time estimated for complete GDP-GTP exchange in the absence of inhibitor. For the KRAS G12D and G12V mutants, similar guanine nucleotide exchange assays were used with 2.5 nM as final concentration for the bodipy loaded KRAS proteins and with 4 hours and 3 hours incubation after adding GppNHp-SOS1 mixture for G12D and G12V respectively. A cyclic peptide described to selectively bind G12D mutant (Sakamoto et al., BBRC 484.3 (2017), 605-611) or internal compounds with confirmed binding were used as positive controls in the assay plates. Fluorescence intensities were measured on a PheraStar plate reader instrument (BMG Labtech) with excitation at 485 nm and emission at 520 nm.
Sequence of KRAS G12C (P01116 1-188 isoform P01116-2 G12C): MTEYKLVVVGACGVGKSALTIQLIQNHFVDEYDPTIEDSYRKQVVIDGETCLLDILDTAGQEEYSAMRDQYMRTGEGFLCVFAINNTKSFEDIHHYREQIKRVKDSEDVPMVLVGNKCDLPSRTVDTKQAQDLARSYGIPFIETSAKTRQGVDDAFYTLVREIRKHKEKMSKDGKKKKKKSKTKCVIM
Either GraphPad prism or XLfit was used to analyze the data. The IC50 values were derived by fitting the data to a four parameter logistic equation producing a sigmoidal dose-response curve with a variable Hill coefficient. Prism equation: Y=Bottom+(Top−Bottom)/(1+10^((Log IC50−X)*Hill slope)); XLfit equation: Y=(A+((B−A)/(1+((X/C)^D)))) where X is the logarithm of inhibitor concentration and Y is the response.

The subject of test [1] is MIA PaCa-2 (KRAS G12C) cells. As to the kind of experiment: KRAS_G12C cellular pERK HTRF assay. The test is classed as cell-based, human. Particulars: phospho-ERK1/2 HTRF, 4 hours incubation, read-out: G12C_pERK (KRAS_G12C pERK assay IC50). How it is done:
MIA PaCa-2 (KRAS G12C; ATCC® CRL-1420), A427 (KRAS G12D; ATCC® HTB53), HPAF-II (KRAS G12D; ATCC® CRL-1997) and NCI-H838 (KRAS WT; ATCC® CRL-5844) cells are purchased from ATCC and maintained in RPMI 1640 media supplemented with 10% FBS (Gibco/Life Technologies). The cells are plated at 5000 cells per well (8 uL) into Greiner 384-well low volume, flat-bottom, tissue culture treated white plates and incubated overnight at 37° C., 5% CO2. The next morning, test compound stock solutions are diluted in media at 3× the final concentration, and 4 uL are added to the cells. The plate is mixed by gentle rotation for 30 seconds (250 rpm) at room temperature. The cells are incubated with the KRAS G12C and G12D compounds for 4 hours or 2 hours respectively at 37° C., 5% CO2.
4 uL of 4× lysis buffer with blocking reagent (1:25) (Cisbio) are added to each well and plates are rotated gently (300 rpm) for 30 minutes at room temperature. 4 uL per well of Cisbio anti Phospho-ERK 1/2 d2 is mixed with anti Phospho-ERK 1/2 Cryptate (1:1) are added to each well, mixed by rotation and incubated overnight in the dark at room temperature. Plates are read on the Pherastar plate reader at 665 nm and 620 nm wavelengths. IC50 determination is performed by fitting the curve of inhibitor percent inhibition versus the log of the inhibitor concentration using the GraphPad Prism 7 software.
(Time-resolved FRET reads energy transfer from a long-lived donor to a nearby acceptor.)

With `CC#CC(=O)N1CC[C@H](n2ncc3c(N4CC(C)(N(C)C)C4)nc4c(F)c(-c5c(C)c(Cl)cc6[nH]ncc56)c(Cl)cc4c32)C[C@H]1CC#N` (single isomer, unassigned) [Example 11a], the IC50 (as a rule, the concentration that inhibits the measured activity by half) was at most 100 nM at KRAS G12C and at most 100 nM in test [1] (Homo sapiens, MIA PaCa-2).
In the case of `COC/C=C/C(=O)N1CC[C@H](n2ncc3c(N4CC(C)(N(C)C)C4)nc4c(F)c(-c5c(C)c(Cl)cc6[nH]ncc56)c(Cl)cc4c32)C[C@H]1CC#N` (single isomer, unassigned) [Example 12a], the IC50 at KRAS G12C was at most 100 nM; in test [1] (Homo sapiens, MIA PaCa-2), at most 100 nM.
With `Cc1c(Cl)cc2[nH]ncc2c1-c1c(Cl)cc2c(nc(N3CC(C)(N(C)C)C3)c3cnn([C@H]4CCN(C(=O)/C=C/CF)[C@H](CC#N)C4)c32)c1F` (single isomer, unassigned) [Example 13a], the concentration for half-maximal inhibition (IC50) was at most 100 nM on KRAS G12C and at most 100 nM in test [1] (Homo sapiens, MIA PaCa-2).
With `Cc1c(Cl)cc2[nH]ncc2c1-c1c(Cl)cc2c(nc(N3CC(C)(N(C)C)C3)c3cnn([C@H]4CCN(C(=O)/C=C/C(F)F)[C@H](CC#N)C4)c32)c1F` (single isomer, unassigned) [Example 14a], the IC50 on KRAS G12C was at most 100 nM; in test [1] (Homo sapiens, MIA PaCa-2), at most 100 nM.
Regarding `C=C(F)C(=O)N1CC[C@H](n2ncc3c(N4CC(C)(N(C)C)C4)nc4c(F)c(-c5c(C)c(Cl)cc6[nH]ncc56)c(Cl)cc4c32)C[C@H]1CC#N` (single isomer, unassigned) [Example 15a], the IC50 was at most 100 nM at KRAS G12C and at most 100 nM in test [1] (Homo sapiens, MIA PaCa-2).
For the molecule `C=CC(=O)N1CC[C@H](n2ncc3c(N4CC(C)(N(C)C)C4)nc4c(F)c(-c5c(C)c(Cl)cc6[nH]ncc56)c(Cl)cc4c32)C[C@H]1CC#N` (single isomer, unassigned) [Example 16a], the IC50 at KRAS G12C was at most 100 nM; in test [1] (Homo sapiens, MIA PaCa-2) it was at most 100 nM.
As for `Cc1c(Cl)cc2[nH]ncc2c1-c1c(Cl)cc2c(nc(OC[C@@H]3CCCN3C)c3cnn([C@H]4CCN(C(=O)/C=C/CN(C)C)[C@H](CC#N)C4)c32)c1F` (single isomer, unassigned) [Example 17a], the IC50 at KRAS G12C is at most 100 nM; in test [1] (Homo sapiens, MIA PaCa-2) it was at most 100 nM.
With `CC#CC(=O)N1CC[C@H](n2ncc3c(OC[C@@H]4CCCN4C)nc4c(F)c(-c5c(C)c(Cl)cc6[nH]ncc56)c(Cl)cc4c32)C[C@H]1CC#N` (single isomer, unassigned) [Example 18a], the IC50 is at most 100 nM on KRAS G12C and at most 100 nM in test [1] (Homo sapiens, MIA PaCa-2).
Regarding `COC/C=C/C(=O)N1CC[C@H](n2ncc3c(OC[C@@H]4CCCN4C)nc4c(F)c(-c5c(C)c(Cl)cc6[nH]ncc56)c(Cl)cc4c32)C[C@H]1CC#N` (single isomer, unassigned) [Example 19a], the IC50 at KRAS G12C is at most 100 nM; in test [1] (Homo sapiens, MIA PaCa-2), at most 100 nM.
Consider `C=CC(=O)N1CC[C@H](n2ncc3c(OC[C@@H]4CCCN4C)nc4c(F)c(-c5c(C)c(Cl)cc6[nH]ncc56)c(Cl)cc4c32)C[C@H]1CC#N` (single isomer, unassigned) [Example 20a], for which the concentration for half-maximal inhibition (IC50) is at most 100 nM on KRAS G12C and at most 100 nM in test [1] (Homo sapiens, MIA PaCa-2).
With `C=CC(=O)N1CC[C@H](n2ncc3c(N4CC(N(C)C)C4)nc4c(F)c(-c5ccc(F)c6cccnc56)c(Cl)cc4c32)C[C@H]1CC#N` (single isomer, unassigned) [Example 21a], the half-maximal inhibitory concentration (IC50) was at most 100 nM on KRAS G12C and at most 100 nM in test [1] (Homo sapiens, MIA PaCa-2).
Take `C=CC(=O)N1CC[C@H](n2ncc3c(N4CC(N(C)C)C4)nc4c(F)c(-c5ccc(F)c6cccnc56)c(Cl)cc4c32)C[C@H]1CC#N` (single isomer, unassigned) [Example 21b]: the IC50 (on KRAS G12C; in test [1]) was at most 100 nM each time.
In the case of `C=CC(=O)N1CC[C@H](n2ncc3c(N4CC(N(C)C)C4)nc4c(F)c(-c5cccc(Cl)c5Cl)c(Cl)cc4c32)C[C@H]1CC#N` (single isomer, unassigned) [Example 25a], the IC50 at KRAS G12C was at most 100 nM; in test [1] (Homo sapiens, MIA PaCa-2) it was at most 100 nM.
As to `C=CC(=O)N1CC[C@H](n2ncc3c(N4CC(N(C)C)C4)nc4c(F)c(-c5cccc(Cl)c5Cl)c(Cl)cc4c32)C[C@H]1CC#N` (single isomer, unassigned) [Example 25b], the IC50 (on KRAS G12C; in test [1]) was at most 100 nM throughout.
As to `CC#CC(=O)N1CC[C@H](n2ncc3c(N4CC(N(C)C)C4)nc4c(F)c(-c5cccc(Cl)c5Cl)c(Cl)cc4c32)C[C@H]1CC#N` (single isomer, unassigned) [Example 26a], the half-inhibitory concentration (IC50) was at most 100 nM at KRAS G12C and at most 100 nM in test [1] (Homo sapiens, MIA PaCa-2).
As for `CC#CC(=O)N1CC[C@H](n2ncc3c(N4CC(N(C)C)C4)nc4c(F)c(-c5cccc(Cl)c5Cl)c(Cl)cc4c32)C[C@H]1CC#N` (single isomer, unassigned) [Example 26b], the IC50 (on KRAS G12C; in test [1]) was at most 100 nM each time.
Take `COC/C=C/C(=O)N1CC[C@H](n2ccc3c(OC[C@@H]4CCCN4C)nc4c(F)c(-c5c(C)c(C)cc6[nH]ncc56)c(Cl)cc4c32)C[C@H]1CC#N` (single isomer, unassigned) [Example 47a]: the half-inhibitory concentration (IC50) on KRAS G12C is at most 100 nM; in test [1] (Homo sapiens, MIA PaCa-2), at most 100 nM.
For `Cc1cc2c(nc(OC[C@@H]3CCCN3C)c3cnn([C@H]4CCN(C(=O)/C=C/CF)[C@H](CC#N)C4)c32)c(F)c1-c1cccc2cccc(C#N)c12` (single isomer, unassigned) [Example 51a], the half-inhibitory concentration (IC50) at KRAS G12C is at most 100 nM; in test [1] (Homo sapiens, MIA PaCa-2) it was at most 100 nM.
Regarding `C=C(F)C(=O)N1CC[C@H](n2ncc3c(OC[C@@H]4CCCN4C)nc4c(F)c(-c5cccc6cccc(C#N)c56)c(C)cc4c32)C[C@H]1CC#N` (single isomer, unassigned) [Example 52a], the IC50 at KRAS G12C is at most 100 nM; in test [1] (Homo sapiens, MIA PaCa-2) it was at most 100 nM.
For `CC#CC(=O)N1CC[C@H](n2ncc3c(OC[C@@H]4CCCN4C)nc4c(F)c(-c5cccc6cccc(C#N)c56)c(C)cc4c32)C[C@H]1CC#N` (single isomer, unassigned) [Example 53a], the IC50 at KRAS G12C was at most 100 nM; in test [1] (Homo sapiens, MIA PaCa-2) it was at most 100 nM.
`COC/C=C/C(=O)N1CC[C@H](n2ncc3c(OC[C@@H]4CCCN4C)nc4c(F)c(-c5cccc6cccc(C#N)c56)c(C)cc4c32)C[C@H]1CC#N` (single isomer, unassigned) [Example 54a]: the 50% inhibitory concentration (IC50) on KRAS G12C is at most 100 nM; in test [1] (Homo sapiens, MIA PaCa-2) it was at most 100 nM.
Regarding `Cc1cc2c(nc(O[C@@H](C)[C@@H]3CCCN3C)c3cnn([C@H]4CCN(C(=O)/C=C/CF)[C@H](CC#N)C4)c32)c(F)c1-c1cccc2cccc(C#N)c12` (single isomer, unassigned) [Example 55b], the half-inhibitory concentration (IC50) at KRAS G12C was at most 100 nM; in test [1] (Homo sapiens, MIA PaCa-2), at most 100 nM.
Consider `C=C(F)C(=O)N1CC[C@H](n2ncc3c(O[C@@H](C)[C@@H]4CCCN4C)nc4c(F)c(-c5cccc6cccc(C#N)c56)c(C)cc4c32)C[C@H]1CC#N` (single isomer, unassigned) [Example 56b], for which the IC50 was at most 100 nM at KRAS G12C and at most 100 nM in test [1] (Homo sapiens, MIA PaCa-2).
With `COC/C=C/C(=O)N1CC[C@H](n2ncc3c(O[C@@H](C)[C@@H]4CCCN4C)nc4c(F)c(-c5cccc6cccc(C#N)c56)c(C)cc4c32)C[C@H]1CC#N` (single isomer, unassigned) [Example 57b], the 50% inhibitory concentration (IC50) on KRAS G12C was at most 100 nM; in test [1] (Homo sapiens, MIA PaCa-2), at most 100 nM.
